Assay results reported in US8039514B2, “Sulfonamide compounds and use thereof” (Asahi Kasei Pharma Corporation, priority 2008, dated 2011).

Target: T1, human calcium-sensing receptor (CaSR) (Homo sapiens, UniProt P41180)
T1 construct: expressed in transfected cells
T1 sequence (P41180 20-1078): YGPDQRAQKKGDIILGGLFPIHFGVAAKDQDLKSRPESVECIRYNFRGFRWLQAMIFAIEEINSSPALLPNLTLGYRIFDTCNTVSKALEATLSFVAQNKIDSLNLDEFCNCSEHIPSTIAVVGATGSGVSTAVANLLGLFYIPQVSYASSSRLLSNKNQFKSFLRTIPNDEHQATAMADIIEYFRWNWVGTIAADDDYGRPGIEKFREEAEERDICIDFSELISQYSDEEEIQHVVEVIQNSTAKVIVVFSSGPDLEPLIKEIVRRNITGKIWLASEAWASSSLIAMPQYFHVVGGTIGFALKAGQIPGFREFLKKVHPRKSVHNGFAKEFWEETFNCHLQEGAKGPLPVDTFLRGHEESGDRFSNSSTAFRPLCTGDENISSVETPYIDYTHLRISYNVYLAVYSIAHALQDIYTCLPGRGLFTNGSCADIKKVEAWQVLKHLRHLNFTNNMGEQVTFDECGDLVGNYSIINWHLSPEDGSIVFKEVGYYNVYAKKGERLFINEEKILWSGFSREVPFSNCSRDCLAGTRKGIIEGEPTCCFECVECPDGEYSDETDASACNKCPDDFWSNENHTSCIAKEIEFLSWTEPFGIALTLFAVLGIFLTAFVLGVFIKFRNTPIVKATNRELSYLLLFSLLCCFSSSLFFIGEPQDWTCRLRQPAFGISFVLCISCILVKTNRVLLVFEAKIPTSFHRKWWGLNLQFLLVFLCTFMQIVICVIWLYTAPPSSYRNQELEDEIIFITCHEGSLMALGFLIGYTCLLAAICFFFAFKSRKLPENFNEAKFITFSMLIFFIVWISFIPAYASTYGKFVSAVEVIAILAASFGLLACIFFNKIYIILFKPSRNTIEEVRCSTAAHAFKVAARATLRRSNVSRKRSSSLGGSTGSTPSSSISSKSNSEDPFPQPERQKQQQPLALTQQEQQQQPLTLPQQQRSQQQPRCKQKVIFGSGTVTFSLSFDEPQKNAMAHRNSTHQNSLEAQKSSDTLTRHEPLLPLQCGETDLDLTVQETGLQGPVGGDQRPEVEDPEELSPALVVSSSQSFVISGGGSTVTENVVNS
Experiment: intracellular Ca assay, CaSR antagonist activity in HEK293/hCaSR cells
Assay type: cell-based
Details: Fura2-AM, inhibition of response to calcium chloride ligand solution, read-out: IC50 values according to the intracellular Ca assay (CaSR antagonist activity)
Outline: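 HEK293/hCaSR cells were loaded with Fura2-AM and pre-incubated with compound for 160 s at 37° C in HEPES buffer (pH 7.4, 0.8 mM CaCl2), then challenged with calcium ligand solution. Read-out was the peak 340/380 nm fluorescence ratio; inhibition is relative to no-compound (0%) and no-calcium-ligand (100%) controls.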

`CC(C)(CC1Cc2ccccc2C1)NC[C@@H](O)CNS(=O)(=O)c1cccc(-c2cccc(C(=O)O)c2)c1` [Exp. 14-2, (R)-3′-(N-(3-(1-(2,3-dihydro-1H-inden-2-yl)-2-methylpropan-2-ylamino)-2-hydroxypropyl)sulfamoyl)biphenyl-3-carboxylic acid] and `CN(C[C@H](O)CNC(C)(C)CC1Cc2ccccc2C1)S(=O)(=O)c1cccc(-c2ccc(C(=O)O)s2)c1` [Exp. 3-130, (R)-5-(3-(N-(3-(1-(2,3-dihydro-1H-inden-2-yl)-2-methylpropan-2-ylamino)-2-hydroxypropyl)-N-methylsulfamoyl)phenyl)thiophen-2-carboxylic acid] cannot be ordered by IC50: ≤ 300 nM for the first, ≤ 300 nM for the second.

`CCc1cc(-c2cccc(CCC(=O)O)c2)ccc1S(=O)(=O)N(C)C[C@H](O)CNC(C)(C)CCCc1ccccc1` [Exp. 3-187, (R)-3-(3′-ethyl-4′-(N-(2-hydroxy-3-(2-methyl-5-phenylpentan-2-ylamino)propyl)-N-methylsulfamoyl)biphenyl-3-yl)propionic acid] and `CN(C[C@H](O)CNC(C)(C)CCCc1ccccc1)S(=O)(=O)c1ccc(-c2cccc(CCC(=O)O)c2)c(Cl)c1` [Exp. 3-185, (R)-3-(2′-chloro-4′-(N-(2-hydroxy-3-(2-methyl-5-phenylpentan-2-ylamino)propyl)-N-methylsulfamoyl)biphenyl-3-yl)propionic acid] cannot be ordered by IC50: ≤ 300 nM for the first, ≤ 300 nM for the second.

`CN(C[C@H](O)CNC(C)(C)Cc1ccc2ccccc2c1)S(=O)(=O)c1cccc(-c2ccc(CCC(=O)O)cc2)c1` [Exp. 3-15, (R)-3-(3′-(N-(2-hydroxy-3-(2-methyl-1-(naphthalen-2-yl)propan-2-ylamino)propyl)-N-methylsulfamoyl)biphenyl-4-yl)propionic acid] and `CN(C[C@H](O)CNC(C)(C)Cc1ccc2ccccc2c1)S(=O)(=O)c1cccc(-c2ccc(NCC(=O)O)cc2)c1` [Exp. 3-28, (R)-2-(3′-(N-(2-hydroxy-3-(2-methyl-1-(naphthalen-2-yl)propan-2-ylamino)propyl)-N-methylsulfamoyl)biphenyl-4-ylamino)acetic acid] fall in the same range of IC50: 300 to 1000 nM for the first, 300 to 1000 nM for the second.

`CN(CC(O)CNC(C)(C)CC1Cc2ccccc2C1)S(=O)(=O)c1cc(C=CC(=O)O)cc(C(F)(F)F)c1` (stereo not shown) [Exp. 11-1, 3-(3-(N-(3-(1-(2,3-dihydro-1H-inden-2-yl)-2-methylpropan-2-ylamino)-2-hydroxypropyl)-N-methylsulfamoyl)-5-(trifluoromethyl)phenyl)acrylic acid] and `CN(C[C@H](O)CNC(C)(C)CC1Cc2ccccc2C1)S(=O)(=O)c1cc(-c2ccc(CCC(=O)O)s2)cc(C(F)(F)F)c1` [Exp. 8-1, (R)-3-(5-(3-(N-(3-(1-(2,3-dihydro-1H-inden-2-yl)-2-methylpropan-2-ylamino)-2-hydroxypropyl)-N-methylsulfamoyl)-5-(trifluoromethyl)phenyl)thiophen-2-yl)propionic acid] cannot be ordered by IC50: ≤ 300 nM for the first, ≤ 300 nM for the second.

First: CN(C[C@H](O)CNC(C)(C)Cc1ccc2ccccc2c1)S(=O)(=O)c1ccc(-c2ccc(C(=O)O)cc2F)cc1 [Exp. 3-35, (R)-2-fluoro-4′-(N-(2-hydroxy-3-(2-methyl-1-(naphthalen-2-yl)propan-2-ylamino)propyl)-N-methylsulfamoyl)biphenyl-4-carboxylic acid]
Second: CN(C[C@H](O)CNC(C)(C)Cc1ccc2ccccc2c1)S(=O)(=O)c1ccc(-c2ccc(C(=O)O)c(N)c2)cc1 [Exp. 3-34, (R)-3-amino-4′-(N-(2-hydroxy-3-(2-methyl-1-(naphthalen-2-yl)propan-2-ylamino)propyl)-N-methylsulfamoyl)biphenyl-4-carboxylic acid]
The IC50 of the first is lower: 300 to 1000 nM for the first, 1000 to 3000 nM for the second.

`CCc1cc(-c2ccc(CCC(=O)O)c(F)c2)ccc1S(=O)(=O)N(C)C[C@H](O)CNC(C)(C)CC1Cc2ccccc2C1` [Exp. 5-58, (R)-3-(4′-(N-(3-(1-(2,3-dihydro-1H-inden-2-yl)-2-methylpropan-2-ylamino)-2-hydroxypropyl)-N-methylsulfamoyl)-3′-ethyl-3-fluorobiphenyl-4-yl)propionic acid] and `CN(C[C@H](O)CNC(C)(C)CC1Cc2ccccc2C1)S(=O)(=O)c1ccc(-c2cc(CCC(=O)O)ccc2F)cc1C(F)(F)F` [Exp. 5-18, (R)-3-(4′-(N-(3-(1-(2,3-dihydro-1H-inden-2-yl)-2-methylpropan-2-ylamino)-2-hydroxypropyl)-N-methylsulfamoyl)-6-fluoro-3′-(trifluoromethyl)biphenyl-3-yl)propionic acid] cannot be ordered by IC50: ≤ 300 nM for the first, ≤ 300 nM for the second.

`CCc1cc(-c2ccc(CCC(=O)O)cc2)ccc1S(=O)(=O)N(C)C[C@H](O)CNC(C)(C)CCCc1cccs1` [Exp. 9-92, (R)-3-(3′-ethyl-4′-(N-(2-hydroxy-3-(2-methyl-5-(thiophen-2-yl)pentan-2-ylamino)propyl)-N-methylsulfamoyl)biphenyl-4-yl)propionic acid] and `CN(C[C@H](O)CNC(C)(C)CCCc1ccsc1)S(=O)(=O)c1cc(-c2ccc(CCC(=O)O)cc2)cc(C(F)(F)F)c1` [Exp. 9-75, (R)-3-(3′-(N-(2-hydroxy-3-(2-methyl-5-(thiophen-3-yl)pentan-2-ylamino)propyl)-N-methylsulfamoyl)-5′-(trifluoromethyl)biphenyl-4-yl)propionic acid] cannot be ordered by IC50: ≤ 300 nM for the first, ≤ 300 nM for the second.

`Cc1c(C(=O)O)cccc1-c1cccc(S(=O)(=O)N(C)C[C@H](O)CNC(C)(C)CC2Cc3ccccc3C2)c1` [Exp. 3-92, (R)-3′-(N-(3-(1-(2,3-dihydro-1H-inden-2-yl)-2-methylpropan-2-ylamino)-2-hydroxypropyl)-N-methylsulfamoyl)-2-methylbiphenyl-3-carboxylic acid] and `CN(C[C@H](O)CNC(C)(C)CC1Cc2ccccc2C1)S(=O)(=O)c1cccc(-c2cccc(C(=O)O)c2F)c1` [Exp. 3-201, (R)-3′-(N-(3-(1-(2,3-dihydro-1H-inden-2-yl)-2-methylpropan-2-ylamino)-2-hydroxypropyl)-N-methylsulfamoyl)-2-fluorobiphenyl-3-carboxylic acid] cannot be ordered by IC50: ≤ 300 nM for the first, ≤ 300 nM for the second.

`COc1ccc(-c2cc(S(=O)(=O)N(C)C[C@H](O)CNC(C)(C)CC3Cc4ccccc4C3)sc2Cl)cc1CCC(=O)O` [Exp. 5-29, (R)-3-(5-(2-chloro-5-(N-(3-(1-(2,3-dihydro-1H-inden-2-yl)-2-methylpropan-2-ylamino)-2-hydroxypropyl)-N-methylsulfamoyl)thiophen-3-yl)-2-methoxyphenyl)propionic acid] and `CN(C[C@H](O)CNC(C)(C)CC1Cc2ccccc2C1)S(=O)(=O)c1ccc(-c2cc(CCC(=O)O)ccc2F)c(F)c1` [Exp. 5-23, (R)-3-(4′-(N-(3-(1-(2,3-dihydro-1H-inden-2-yl)-2-methylpropan-2-ylamino)-2-hydroxypropyl)-N-methylsulfamoyl)-2′,6-difluorobiphenyl-3-yl)propionic acid] cannot be ordered by IC50: ≤ 300 nM for the first, ≤ 300 nM for the second.

Compared with `CN(C[C@H](O)CNC(C)(C)Cc1ccc2ccccc2c1)S(=O)(=O)c1ccc(-c2ccccc2C=CC(=O)O)cc1` [Exp. 3-44, (R)-3-(4′-(N-(2-hydroxy-3-(2-methyl-1-(naphthalen-2-yl)propan-2-ylamino)propyl)-N-methylsulfamoyl)biphenyl-2-yl)acrylic acid], `CN(C[C@H](O)CNC(C)(C)Cc1ccc2ccccc2c1)S(=O)(=O)c1ccc(-c2cc(F)c(C(=O)O)c(F)c2)cc1` [Exp. 3-48, (R)-3,5-difluoro-4′-(N-(2-hydroxy-3-(2-methyl-1-(naphthalen-2-yl)propan-2-ylamino)propyl)-N-methylsulfamoyl)biphenyl-4-carboxylic acid] is lower in IC50: 1000 to 3000 nM for the first, ≤ 300 nM for the second. The second is the more potent here.

`CN(C[C@H](O)CNC(C)(C)Cc1ccc2ccccc2c1)S(=O)(=O)c1cccc(-c2ccc(C(=O)O)c(F)c2)c1` [Exp. 3-9, (R)-3-fluoro-3′-(N-(2-hydroxy-3-(2-methyl-1-(naphthalen-2-yl)propan-2-ylamino)propyl)-N-methylsulfamoyl)biphenyl-4-carboxylic acid] and `CN(C[C@H](O)CNC(C)(C)CC1Cc2ccccc2C1)S(=O)(=O)c1ccc(-c2ccc(C(=O)O)c(Cl)c2)cc1C(F)(F)F` [Exp. 3-213, (R)-3-chloro-4′-(N-(3-(1-(2,3-dihydro-1H-inden-2-yl)-2-methylpropan-2-ylamino)-2-hydroxypropyl)-N-methylsulfamoyl)-3′-(trifluoromethyl)biphenyl-4-carboxylic acid] cannot be ordered by IC50: 300 to 1000 nM for the first, ≤ 300 nM for the second.
